Test results: US20160281077A1, “MEDIUM AND METHOD FOR CULTURING EUGLENA AND METHOD FOR REDUCING PHOTOINHIBITION IN EUGLENA” (Euglena Co., Ltd., priority 2015, published 2016)

Key:
Euglena gracilis Z [1] = experiment: Study 3: photocurrent after addition of Euglena and of electron transport inhibitor DBMIB; assay type: cell-based; conditions: DBMIB 100 μM added after about 37 minutes to PMF 3 g/L medium with Euglena; current before about 8 μA
Protocol: To determine whether the effect of the medium supplemented with PMF in facilitating the proliferation of Euglena in electrochemical culture as shown by the Studies 1 and 2 is attributed to extracellular transfer of electrons from Euglena, DBMIB (2,5-dibromo-3-methyl-6-isopropyl-p-benzoquinone), which is an electron transport inhibitor, was added to the culture system that included PMF, and a change in photocurrent was measured.
DBMIB binds to the plastoquinone-binding site of the cytochrome b6f and prevents the oxidation of reduced plastoquinone thereby inhibiting electron transport. DBMIB inhibits the transfer of electrons from plastoquinone to the photosystem I and thus is used to measure the activity of the photosystem II.
In the Study 3, the CM medium having a PMF concentration of 3 g/L was placed into the same three-electrode electrochemical cell as the Study 1. Then, the electrochemical cell was placed into a shielded enclosure to measure the photocurrent.
After about 21 minutes from the start of the measurement, the precultured Euglena was added at an initial density (OD800) of 0.5. After about 37 minutes from the start of the measurement, DBMIB was added at a concentration of 100 μM to the medium.

Euglena gracilis Z [2] = experiment: Study 2 and reference study: proliferation (cell density) of Euglena under strong or weak light; assay type: cell-based; conditions: 0.5 mM ascorbic acid in place of PMF
Protocol: The CM medium having a PMF concentration of 0.5 g/L was placed into the same three-electrode electrochemical cell as the Study 1.
To the medium, the precultured Euglena was added at an initial density (OD800) of 0.05 and electrochemically cultured under strong light having an intensity of 5000 lux, which is about one tenth of the maximum intensity of sunlight. After 0, 24, 48, 76, 96, and 148 hours from the start of the culture, the cell density was determined (Example 2). The voltage applied was +0.6 V vs. SHE.
A similar study was performed on Euglena non-electrochemically cultured in the medium that included no PMF (Comparative Example 3).
A similar study was also performed on Euglena electrochemically cultured in the medium that included PMF (Comparative Example 4) and Euglena electrochemically cultured in the medium that included no PMF (Comparative Example 5) under weak light having an intensity of 1000 lux, which is about one fiftieth of the maximum intensity of sunlight.
In the study, proliferation of Euglena that were cultured in the medium supplemented with or without 0.5 mM of ascorbic acid in place of PMF used in the Study 2 under strong light or under weak light was compared. The study was performed in the same manner as in the Study 2 except that 0.5 mM of ascorbic acid was added in place of PMF.

Q: `CC1=C(Br)C(=O)C(C(C)C)=C(Br)C1=O` [DBMIB, 2,5-dibromo-3-methyl-6-isopropyl-p-benzoquinone] was tested. Which “current after addition of DBMIB” value (Euglena gracilis Z [1]) did it give?
A: about 4 μA

Q: `O=C1O[C@H]([C@@H](O)CO)C(O)=C1O` [ascorbic acid] was tested. Which “facilitating the proliferation of Euglena under strong light” value (Euglena gracilis Z [2]; strong light (5000 lux)) did it give?
A: effective in facilitating the proliferation of Euglena

Q: And the “facilitating the proliferation of Euglena under weak light” value (Euglena gracilis Z [2]; weak light (1000 lux))?
A: not effective in facilitating the proliferation
